Source: patent US10946093B2, “Methods of treating cancer using PD-1 axis binding antagonists and MEK inhibitors” (Genentech, Inc., priority 2014, dated 2021)

Tested on: Vemurafenib-progressing melanoma tumors
Test: Melanoma GEM model B-raf V600E; PTEN fl/fl; TyCreER, Vemurafenib-progressing tumors
Format: in vivo, mouse
Settings: 2nd line after first line Vemurafenib; GDC-0973 7.5 mg/kg PO qd; anti-PDL1 10 mg/kg IP three times weekly
Description: A melanoma GEM model B-raf^V600E; PTEN^fl/fl; TyCreER was used.
Animals were enrolled into the study once their tumors reached a size greater than or equal to 400 mm^3.
Prior to beginning treatment, each mouse received a biopsy of a melanoma tumor. After the biopsy, mice were allowed to recover for up to one week prior to receiving treatment. Mice were assigned into initial treatment groups (n=20), and treatment commenced at day 0.
When animals in any group reached ˜2000 mm^3, the tumors were biopsied a second time. After the biopsy procedure, mice recovered for up to one week prior to receiving further therapeutic treatment.
Mice were weighed and tumors measured at least once a week until study termination. Mice received treatment each day until a mean tumor volume of 2500 mm^3 was achieved. Mice were then euthanized, and melanoma tumors were collected for histology and assessing molecular changes. Mice were perfused under anesthesia at euthanasia.
Throughout the study, mice were monitored for clinical appearance (body condition, coat appearance, posture, labored breathing, etc.) at least 2 times a week, with increasing frequency, up to daily, depending on severity of adverse clinical signs observed. Moribund animals were euthanized. Mice with a body condition score <2 were euthanized.

Compound: O=C(c1ccc(F)c(F)c1Nc1ccc(I)cc1F)N1CC(O)([C@@H]2CCCCN2)C1 [Cobimetinib, Methanone, [3,4-difluoro-2-[(2-fluoro-4-iodophenyl)amino]phenyl][3-hydroxy-3-(2S)-2-piperidinyl-1-azetidinyl]-]
- effect on tumor growth (percent tumor volume change over time, FIG. 1): initial tumor regression, but this response was not sustained and tumor re-growth was observed
